In patent US9552457B2, “Reprogramming effector protein interactions to correct epigenetic defects in cancer” (BRITISH COLUMBIA CANCER AGENCY BRANCH, priority 2012, dated 2017):
Read-outs that look alike come from different tables or passages of the source.

Columns and labels:
[1] = test system: SU-DHL-9 (MLL2 homozygous indel mutant) cell line; experiment: alamarBlue cell proliferation assay, SU-DHL-9 cell line; type: cell-based, human; details: for activity at 10 µM: Homo sapiens, read-out: % Cell Proliferation; for activity as worded in SAR analysis (selective toxicity against SU-DHL-9): in words, restates Tables 3 and 4
Description: Cell line DOHH2 was obtained from DSMZ. Pfeiffer was obtained from ATCC. SU-DHL-9 was obtained from Martin Dyer (University of Leicester, UK).
Compounds were initially solubilized in DMSO at a concentration of 10 mM. […] Ninety microliters of cells maintained at a concentration of 4×10^5 cells/mL were dispensed into wells of a MICROTEST™ 96-well Assay Plate, Optilux™ (BD). Ten microliters of the 100 μM compound solution were then added to the cells resulting in a final compound concentration of 10 μM. Each compound was tested in triplicate. […] Compounds were incubated with the cells in a 37° C. incubator with 5% CO2, humidified atmosphere for 48 hours before being subjected to the alamarBlue® cell proliferation assay (Life Technologies). Raw fluorescent units were corrected for background noise and normalized to the carrier-treated control.

[2] = test system: WSU-DLCL2 Cells (EZH2 mutation Y641F); experiment: Cell viability of lymphoma cell lines, WSU-DLCL2; type: cell-based, human; design: Effect on Cell Viability (% survival) WSU-DLCL2 Cells: concentration or dose not given beside the values; details: Table 5
Description: (§1) Compound 50 was tested for its effect on the viability of three lymphoma cell lines in vitro using standard methods. The cell lines tested were: DoHH-2 (wildtype for EZH2, MEF2B and MLL2); WSU-DLCL2 (EZH2 mutation Y641F (wildtype for MEF2B and MLL2)) and DB (EZH2 mutation Y641N, the MEF2B mutation D83V and three mutations in MLL2 (two of which lead to a truncated protein after residue Q2736 and the third allele has a 1 base pair deletion at residue P480)).
(§2) Compound 51 (NSC2540) was tested for its effect on the viability of four lymphoma cell lines in vitro using standard methods. The cell lines tested were DoHH-2, WSU-DLCL2, DB and SU-DHL-9 (EZH2 wildtype, MEF2B wildtype, MLL2 indel).

[3] = test system: DoHH2 Cells (wildtype for EZH2, MEF2B and MLL2); experiment: Cell viability of lymphoma cell lines, DoHH-2; type: cell-based; design: Effect on Cell Viability (% survival) DoHH2 Cells: concentration or dose not given beside the values; details: Table 5
Description: as §1, §2

[4] = test system: DoHH-2, OCI-LY3, WSU-DLCL2 (all wild-type for MLL2); experiment: alamarBlue cell proliferation assay, MLL2 wild-type cell lines; type: cell-based; details: in words
Description: Diffuse large B-cell lymphoma cell lines were maintained in RPMI medium 1640 (Life Technologies) supplemented with 10% (v/v) fetal bovine serum (Life Technologies) and 1% penicillin/streptomycin (Life Technologies) in a 37° C. incubator with 5% CO2, humidified atmosphere. Cell line DOHH2 was obtained from DSMZ. Pfeiffer was obtained from ATCC. SU-DHL-9 was obtained from Martin Dyer (University of Leicester, UK).
Compounds were initially solubilized in DMSO at a concentration of 10 mM. This compound solution was further diluted 1:100 in RPMI medium 1640 to a final concentration of 100 μM. Ninety microliters of cells maintained at a concentration of 4×10^5 cells/mL were dispensed into wells of a MICROTEST™ 96-well Assay Plate, Optilux™ (BD). Ten microliters of the 100 μM compound solution were then added to the cells resulting in a final compound concentration of 10 μM. Each compound was tested in triplicate. Ten microliters of a 1:100 DMSO to RPMI medium 1640 solution were also added to 90 μL of cells as a carrier control. Furthermore, each plate included wells containing only RPMI medium 1640 to serve as a background noise control as well as cells that were completely untreated. Compounds were incubated with the cells in a 37° C. incubator with 5% CO2, humidified atmosphere for 48 hours before being subjected to the alamarBlue® cell proliferation assay (Life Technologies). Raw fluorescent units were corrected for background noise and normalized to the carrier-treated control.
The activity of Compound 3 in vitro was investigated further using the cell lines DoHH-2, OCI-LY3, WSU-DLCL2 (all wild-type for MLL2) and SU-DHL9. In addition, the dose response for Compound 2 was investigated in cell lines mutant for MLL2 or both MLL2 and EZH2. The dose response for Compound 3 was investigated in a MLL2 mutant cell line. Methods were as described for Example 3. Cell-line WSU-DLCL2 was obtained from DSMZ and OCI-Ly lines 3 was obtained from Louis Staudt (US National Institutes of Health).

[5] = Table 3, scaffold A, 10 μM, 48 hours, normalized to carrier-treated control, SU-DHL-9
[6] = Table 4, scaffold B, 10 μM, 48 hours, normalized to carrier-treated control, SU-DHL-9

Compound	Effect on Cell Viability (% survival) WSU-DLCL2 Cells [2] [%]	Effect on Cell Viability (% survival) DoHH2 Cells [3] [%]	further results
C=C(CNC(C)(C)C)C(=O)c1ccccc1 [Compound 8, 2-[(tert-butylamino)methyl]-1-phenylprop-2-en-1-one]	–	–	activity at 10 µM [1, 5]: 92%
C=CCCC(=C)c1ccccc1 [Compound 21]	–	–	activity at 10 µM [1, 5]: 105%
CC(=O)Nc1cccc2c1C(=O)c1ccccc1C2=O [Compound 24]	–	–	activity at 10 µM [1, 6]: 107%; activity as worded in SAR analysis (selective toxicity against SU-DHL-9) [1]: inactive
CC(=O)C(=O)c1ccccc1 [Compound 12]	–	–	activity at 10 µM ([1]; 48 h): 105%
O=C(c1cc(-c2ccc(Cl)c(Cl)c2)nc2c(Cl)cc(Cl)cc12)C1NN1 [Compound 33]	100	100	–
O=C(CBr)c1cc(-c2ccc(Cl)cc2)nc2c(-c3ccccc3)cccc12 [Compound 35]	17	20	–
C=C(CN(C)C)C(=O)c1ccc(C)cc1C [Compound 15]	–	–	activity at 10 µM [1, 5]: 61%
O=C(Cl)c1cc(-c2ccc(Cl)cc2)nc2c(-c3ccccc3)cccc12 [Compound 37]	80	100	–
CC(=O)c1cc(-c2ccc(Cl)cc2)nc2ccccc12 [Compound 28]	100	100	–
CC(O)c1cc(-c2ccc(Cl)cc2)nc2ccccc12 (stereo not drawn) [Compound 29]	80	100	–
CC(O)c1cc(-c2ccccc2)nc2ccccc12 (stereo not drawn) [Compound 26]	90	100	–
OC(c1cc(-c2cccc(Cl)c2)nc2ccccc12)C1CCCCN1 (stereo not drawn) [Compound 41]	10	17	–
OC(c1cc(-c2ccc(Cl)cc2)nc2ccccc12)C1CCCCN1 (stereo not drawn) [Compound 40]	50	100	–
CCN(CC)CC(O)c1cc(-c2ccc(Cl)cc2)nc2cc(Cl)ccc12 (stereo not drawn) [Compound 45]	80	100	–
C=C(CN(C)C)C(=O)c1ccc(C(=O)C(=C)CN(C)C)cc1 [Compound 14]	–	–	activity at 10 µM [1, 5]: 93%; activity as worded in SAR analysis (selective toxicity against SU-DHL-9) [1]: lacks activity
Cc1c(Cl)ccc2c(C(O)CN(C)C)cc(-c3ccc(Cl)cc3)nc12 (stereo not drawn) [Compound 47]	100	100	–
C=C(CN(C)C)C(=O)c1ccccc1C [Compound 16]	–	–	activity at 10 µM [1, 5]: 107%; activity as worded in SAR analysis (selective toxicity against SU-DHL-9) [1]: inactive or minimally active
OC(c1cc(-c2ccccc2)nc2c(Cl)cc(Cl)cc12)C1CCCCN1 (stereo not drawn) [Compound 42]	10	30	–
C=CS(=O)(=O)c1ccc2ccccc2c1 [Compound 6, 2-ethenylsulfonylnaphthalene]	–	–	activity at 10 µM [1, 5]: 69%; activity as worded in SAR analysis (selective toxicity against SU-DHL-9) [1]: only moderate activity
CC(=O)c1cc(-c2ccc(Cl)c(Cl)c2)nc2c(Cl)cc(Cl)cc12 [Compound 32]	90	100	–
Cc1c(Cl)ccc2c(C(=O)NN)cc(-c3ccc(Cl)cc3)nc12 [Compound 48]	40	90	–

Compound	Effect on Cell Viability (% survival) WSU-DLCL2 Cells [2] [%]	Effect on Cell Viability (% survival) DoHH2 Cells [3] [%]	further results
OC(c1cc(-c2ccccc2)nc2cc(Cl)ccc12)C1CCCCN1 (stereo not drawn) [Compound 43]	10	40	–
OC(c1cc(-c2ccc(Cl)cc2Cl)nc2cc(Cl)ccc12)C1CCCCN1 (stereo not drawn) [Compound 39]	20	60	–
C=C(CN(C)C)C(=O)c1ccc(OC)cc1 [Compound 20]	–	–	activity at 10 µM [1, 5]: 83%
O=C(CBr)c1cc(-c2ccc(Cl)cc2)nc2ccccc12 [Compound 27]	40	90	–
C=C(CN(C)C)C(=O)c1cc(C)ccc1C [Compound 1, 2-dimethylaminomethyl-1-(2,5-dimethyl-phenyl)-propenone]	–	–	activity against wild-type cells [4]: inactive; activity at 10 µM [1, 5]: < 10%; activity against the MLL2 double LoF mutant cell line ([1]; SU-DHL-9, in words): active; activity as worded in SAR analysis (selective toxicity against SU-DHL-9) [1]: active
CC(=O)NC(CC(=O)Nc1cccc2c1C(=O)c1ccccc1-2)C(C)=O (stereo not drawn) [Compound 23]	–	–	activity at 10 µM [1, 6]: 114%; activity as worded in SAR analysis (selective toxicity against SU-DHL-9) [1]: inactive
C=CC(=O)c1ccccc1 [Compound 13]	–	–	activity at 10 µM [1, 5]: 137%
CCCN(CCC)CC(O)c1cc(-c2ccc(Cl)cc2)nc2c(C)c(Cl)ccc12 (stereo not drawn) [Compound 46]	90	100	–
O=C(CBr)c1cc(-c2ccc(Cl)cc2)nc2cc(Cl)ccc12 [Compound 30]	40	60	–
O=C1c2ccccc2-c2cccc(NC(=O)C(Cl)Cl)c21 [Compound 22]	–	–	activity at 10 µM [1, 6]: 86%; activity as worded in SAR analysis (selective toxicity against SU-DHL-9) [1]: partially active
C=C(CN1CCOCC1)C(=O)c1ccccc1 [Compound 11, 2-(morpholin-4-ylmethyl)-1-phenylprop-2-en-1-one]	–	–	activity at 10 µM [1, 5]: 26%
OC(c1cc(-c2ccccc2)nc2c1ccc1ccccc12)C1CCCCN1 (stereo not drawn) [Compound 44]	10	10	–
Cc1c(Cl)ccc2c(C(=O)CNCc3ccccc3)cc(-c3ccc(Cl)cc3)nc12 [Compound 49]	50	70	–
OC(CBr)c1cc(-c2ccc(Cl)cc2)nc2c(-c3ccccc3)cccc12 (stereo not drawn) [Compound 36]	90	100	–
OC(CBr)c1cc(-c2ccccc2)nc2ccccc12 (stereo not drawn) [Compound 25]	60	100	–
O=C1c2ccccc2-c2c(NC(=O)C(Cl)Cl)cccc21 [Compound 9, 2,2-dichloro-N-(9-oxofluoren-4-yl)acetamide]	–	–	activity at 10 µM [1, 6]: 117%
OC(c1cc(-c2ccc(Cl)cc2)nc2cc(Cl)ccc12)N1CCCCC1 (stereo not drawn) [Compound 38]	80	100	–
OC(CBr)c1cc(-c2ccc(Cl)cc2)nc2cc(Cl)ccc12 (stereo not drawn) [Compound 31]	100	100	–
COc1ccccc1C(=O)C(=O)CN(C)C [Compound 17]	–	–	activity at 10 µM [1, 5]: 89%; activity as worded in SAR analysis (selective toxicity against SU-DHL-9) [1]: inactive or minimally active
C=C(CN(C)C)C(=O)c1ccccc1 [Compound 19]	–	–	activity at 10 µM [1, 5]: 77%; activity as worded in SAR analysis (selective toxicity against SU-DHL-9) [1]: inactive or minimally active
OC(CBr)c1cc(-c2ccccc2)nc2c(Cl)cc(Cl)cc12 (stereo not drawn) [Compound 34]	90	100	–
